What was measured:
[1] = molecular target: human PDHK2 (12-407) (Homo sapiens (Human), UniProt Q15119); test: Isothermal titration calorimetry (ITC) binding; conditions: 30° C.
Description: Isothermal Titration Calorimetry
ITC measurements were performed with a VP-ITC micro calorimeter (Microcal, LLC/GE Healthcare Bio-Sciences AB, Uppsala, Sweden). In general titrations were performed by titrating the protein (50 μM) to the test compound (5 μM) in 12 μl injections. All binding experiments were carried out at 30° C. In general the test compounds were diluted form DMSO stock solutions into the measurement buffer with a maximum final concentration of 1% DMSO. The measurement buffer was 20 mM HEPES, 135 mM KCl, 1 mM TCEP, 2 mM MgCl2, 15 mM NaH2PO4, pH 7.5. The human PDHK2 (12-407) was produced in E. coli as his-tagged protein and purified by affinity chromatography. The tag was removed by side specific proteolysis. Before titration the protein buffer was changed to the measurement buffer containing the same DMSO concentration as the test compound dilution. ITC data analysis was performed using Origin 7 calorimetry software from the same supplier. For most measurements a binding model of one binding site was assumed. According to the applied mathematical model it is possible to calculate the binding constant (KA), the observed binding enthalpy (ΔH^obs) as well as the stoichiometry (N) of the formed complex. Preceding analysis the raw data was corrected for the heats of dilution by extrapolating from the saturation value from the end of titration. In order to allow for direct comparison between the respective experimental series and protein preparations the protein concentration was corrected by referencing titrations to a well behaved standard inhibitor. The apparent stoichiometry values defined the fraction of binding competent protein and compensated for relative errors in protein concentration measurements. This corrected protein concentration was used to set up ITC experiment series with test compounds. Any deviations from ideal 1:1 stoichiometry observed here were attributed to errors in compound concentration. This nominal compound concentration was corrected as well to achieve 1:1 stoichiometry in the fit.

[2] = molecular target: PDHK2 (Homo sapiens (Human), UniProt Q15119); test: Biochemical activity testing of PDHK2: PDC inactivation assay; conditions: human rec PDHK2, PDC inactivation assay; read-out: IC50 PDHK2 (enzyme assay)
Source text: Biochemical Activity Testing of PDHK2: PDC Inactivation Assay
The biochemical activity assay for PDHK2 is based on the inactivation of PDC through phosphorylation by PDHK2. The assay is run in two steps: the enzymatic PDHK2 reaction in which isolated PDC is phosphorylated by PDHK2 with ATP as co-substrate and the PDC activity assay in which pyruvate and NAD are converted to acetyl-CoA and NADH. The PDC activity correlates to the increase in NADH and thereby is detectable directly via the increasing fluorescence signal (Exc 340 nm, Em 450 nm). Inhibition of PDHK2 results in a lower phosphorylation status and thereby a less decrease in activity of PDC and a stronger increase in NADH fluorescence signal.
The PDC inactivation assay is performed in Greiner 384-well microtiter plates and is used for high throughput screen. […] The first fluorescence measurement is performed on a Perkin Elmer Envision (Exc 340 nm, Em 450 nm). […] Afterwards a second fluorescence measurement is performed and the PDC activity is calculated by the difference between both measurements. […] The inhibitory values (IC50) were determined using either the program Symyx Assay Explorer® or Condosseo® from GeneData.

[3] = test system: PDH-E1alpha (pSer300) in HEK293T cells; test: Cellular immunofluorescence assay for compound activity (Anti-PDH-E1alpha pSer300); type: cell-based; conditions: Homo sapiens, HEK-293T, 5 hours incubation, read-out: IC50 (cell data)
Description: Cellular Assay for Determination of Compound Activities
Compound activities were determined in a cellular immunofluorescence assay. Human HEK293T cells were seeded into black 384-well plates with clear bottom and grown overnight.
Next day, test compounds were added to the wells and the plates incubated for 5 hours. Following this, cells were fixed with formaldehyde, permeabilised and blocked. The primary antibody, Anti-PDH-E1alpha (pSer300), AP1064 (Merck Millipore) was added and incubated overnight in the plate wells. Next, cells were washed and the secondary antibody, Alexa Fluor 488, goat anti-rabbit ab (A-11008, Invitrogen) was added together with Hoechst 33258 (H3569, Invitrogen) and incubated for 1 hour in the plate wells. Finally, cells were washed and the plates were measured on the laser scanning cytometer acumen hci (TTpLabtech).
The raw data were normalized against a pharmacological inhibitor control and dose response curves were generated by plotting the percent effect values using the software package Genedata screener (Genedata).

| SMILES | Kd [1] | IC50 [2] | IC50 [3] |
| --- | --- | --- | --- |
| C[C@@](O)(C(=O)N1CCc2c(ncn2-c2ccc(Cl)cc2)C1)C(F)(F)F [Compound A45, (R)-1-[1-(4-Chloro-phenyl)-1,4,6,7-tetrahydro-imidazo[4,5-c]pyridin-5-yl]-3,3,3-trifluoro-2-hydroxy-2-methyl-propan-1-one] | < 300 nM |  |  |
| C[C@@](O)(C(=O)N1CCc2c(ncn2-c2ccc(F)cc2)C1)C(F)(F)F [Compound A44, (R)-3,3,3-Trifluoro-1-[1-(4-fluoro-phenyl)-1,4,6,7-tetrahydro-imidazo[4,5-c]pyridin-5-yl]-2-hydroxy-2-methyl-propan-1-one] | < 300 nM |  |  |
| COc1ccc(-n2ncc3c2[C@@H](C)CN(C(=O)[C@@](C)(O)C(F)(F)F)C3)cn1 [Compound A31, (R)-3,3,3-Trifluoro-2-hydroxy-1-[(S)-1-(6-methoxy-pyridin-3-yl)-7-methyl-1,4,6,7-tetrahydro-pyrazolo[4,3-c]pyridin-5-yl]-2-methyl-propan-1-one] |  | 3000 to 50000 nM |  |
| COc1ccc(-n2ncc3c2[C@H](C)CN(C(=O)[C@@](C)(O)C(F)(F)F)C3)cn1 [Compound A30, (R)-3,3,3-Trifluoro-2-hydroxy-1-[(R)-1-(6-methoxy-pyridin-3-yl)-7-methyl-1,4,6,7-tetrahydro-pyrazolo[4,3-c]pyridin-5-yl]-2-methyl-propan-1-one] | < 300 nM | < 300 nM | < 300 nM |
